Results taken from patent publication US4925861A, “Carboxystyrene derivatives and drugs containing them as effective ingredients” (Mitsubishi Kasei Corporation, priority 1987, dated 1990).

System: Phospholipase A2 from Naja mocambique
Assay: in vitro phospholipase inhibiting activity (DPybPC fluorescence)
Type: biochemical
Details: compound 10^-5 M, substrate DPybPC 2 μM, pH 8.0, 25° C.

CCC(CC)(CNC(=O)c1cccc(C=Cc2nc3ccccc3s2)c1)C(=O)O [Compound 20]
Phospholipase A2 Inhibition (%): 47%

O=C(Nc1ccccc1C(=O)O)c1cccc(C=Cc2nc3ccccc3s2)c1 [Compound 13]
Phospholipase A2 Inhibition (%): 73%
